Reference: patent US11998610B2, “Conjugates and methods of using the same” (Flagship Pioneering Innovations V, Inc., priority 2018, dated 2024)

Columns and labels:
E. coli Nissle 1917 = test: Payload release in the presence of fecal matter, ClbP positive E. coli; type: cell-based; conditions: 10 μM compound, anaerobic, 37° C., 20 h, LCMS
Text: (§1) This example is representative of the methods described in Example 103. Fecal samples were subjected to metagenomic whole-genome shotgun sequencing followed by querying the dataset for the presence of the clbP gene or by attempting to amplify the gene with primers specific for it by qPCR. Samples that gave a signal below the detection limit were used in subsequent steps. The fecal sample was resuspended as a 15% (w/v) slurry in Anaerobic Phosphate Buffer Saline.
(§2) Following steps 1 and 2 as detailed in Example 98, E. coli CFT073 ATCC 700928, E. coli Nissle 1917, or E. coli BL21(DE3) were grown in liquid culture.
(§3) In an anaerobic chamber, the E. coli strains were added to the fecal samples obtained in step 1 at a dilution level calculated to represent 0, 1, 10, 50, 90, 99, or 100% of all organisms present in PRAS dilution blank on a 200 μL volume. The test compound (10 μM final concentration) was added to the mixture. The test compound was also added to a bacteria-free media control under similar conditions. The plate was sealed and incubated at 37° C. for 20 h. Under similar conditions, a standard curve of both the starting material and the payload compound was made in bacteria-free media.
(§4) After 20 h, an aliquot was tested for breakdown and release of a payload by LCMS by diluting serially to a final dilution of 1:100 first with Acetonitrile (10× dilution) and then with (1:1) Mobile Phase A-0.1% Formic Acid in Water:Mobile Phase B-0.1% Formic acid in Acetonitrile (1 OX dilution), with absolute quantification compared to the external standard curve. In an ideal case, the amount of payload released in the reaction(s) with ClbP-encoding E. coli was >75% of the theoretical maximum, and none was released in the E. coli BL21(DE3) and media-alone conditions. In an acceptable case, the amount of payload released in the reaction(s) with ClbP-encoding E. coli was 25-75% of the theoretical maximum, and <25% of the theoretical maximum was released in the E. coli BL21(DE3) and media-alone conditions. In a non-preferred case, the amount of payload released in the reactions(s) with ClbP-encoding E. coli was <25% of the theoretical maximum, and >25% of the theoretical maximum was released in the E. coli BL21(DE3) and media-alone conditions.

CT26.CL25 cells = test: Cell viability readout (CellTiter-Glo) with bacteria-free media; type: cell-based, mouse; conditions: 10 nM compound, CT26.CL25 cells, 72 h, CellTiter-Glo
Protocol: Example 100: Cell-Based Assay of Bacterial Enzymes with Mammalian CT26.CL25 Mouse Colorectal Carcinoma Viability Readout
Bacteria-free media was incubated with the indicated test compound. ((R)—N1-(2-(methylamino)ethyl)-2-octanamidosuccinamide, a recognition element-linker conjugate lacking a payload, was serially diluted 1:1000 in DMSO and […] in medium+10% FBS to give a final concentration of 10 nM. Compound 35, Compound 76, Compound 77, Compound 78, Compound 79, and SN-38 were serially diluted 1:1000 in DMSO and 1:1000 in medium to give a final concentration of 10 nM, and then the bacteria-free supernatants were tested for their ability to kill mammalian cells. As an additional control, the test compound will also be incubated with bacteria-free media. The above steps can also be performed in the presence of E. coli (CFT073 ATCC 700928, Nissle 1917, or BL21 (DE3)) to effect cleavage of the conjugates of the application.
On Day 1, CT26.CL25 cells (15,000 cells/well) were seeded in triplicate into a 24 well plate and incubated overnight in 100 μL of complete medium. The reactions (bacteria or media blank) was pelleted by centrifugation, and then the supernatant was passed through a 0.2 μm sterile filter to remove residual bacteria.
On Day 2, 300 μL of a 10 nM solution of each compound in media were applied to separate wells of CT26.CL25 cells as prepared on Day 1. The cells were incubated at 37° C. for 72 h. After this point, viability was assessed using a CellTiter-Glo kit.
Binning of the compounds was achieved by measuring cell growth or arrest (e.g. remaining cells are >90% viable, >80% viable, >70% viable, >60% viable, >50% viable, >40% viable, >30% viable, >20% viable, or >10% viable).

E. coli BL21(DE3) = test: Payload release in the presence of fecal matter, ClbP negative E. coli; type: cell-based; conditions: 10 μM compound, anaerobic, 37° C., 20 h, LCMS
Text: as §1, §2, §3, §4

| Compound | % payload released in ClbP positive (Nissle 1917) at 1:1 ratio of E. coli to fecal bacteria (E. coli Nissle 1917) | Bacteria-free media (Luminescence, average of three runs) (CT26.CL25 cells) | % payload released in ClbP negative (BL21 DE3) at 1:1 ratio of E. coli to fecal bacteria (E. coli BL21(DE3)) |
| --- | --- | --- | --- |
| CCc1c2c(nc3ccc(OC(=O)N(C)CCNC(=O)[C@@H](CC(N)=O)NC(=O)CCCc4ccccc4)cc13)-c1cc3c(c(=O)n1C2)COC(=O)[C@]3(O)CC [Example 78, (S)-4,11-diethyl-4-hydroxy-3,14-dioxo-3,4,12,14-tetrahydro-1H-pyrano[3′,4′:6,7]indolizino[1,2-b]quinolin-9-yl (2-((R)-4-amino-4-oxo-2-(4-phenylbutanamido)butanamido)ethyl)(methyl)carbamate] | 0% | 317645 | 0% |
| CCCCCCNC(=O)N[C@H](CC(N)=O)C(=O)NCCN(C)C(=O)Oc1ccc2nc3c(c(CC)c2c1)Cn1c-3cc2c(c1=O)COC(=O)[C@]2(O)CC [Example 77, (S)-4,11-diethyl-4-hydroxy-3,14-dioxo-3,4,12,14-tetrahydro-1H-pyrano[3′,4′:6,7]indolizino[1,2-b]quinolin-9-yl (2-((R)-4-amino-2-(3-hexylureido)-4-oxobutanamido)ethyl)(methyl)carbamate] | 0% | 345334 | 0% |
| CCCCCCCC(=O)N[C@H](CC(N)=O)C(=O)NCCN(C)C(=O)O[C@]1(CC)C(=O)OCc2c1cc1n(c2=O)Cc2c-1nc1ccc(O)cc1c2CC [Example 79, (S)-4,11-diethyl-9-hydroxy-3,14-dioxo-3,4,12,14-tetrahydro-1H-pyrano[3′,4′:6,7]indolizino[1,2-b]quinolin-4-yl (2-((R)-4-amino-2-octanamido-4-oxobutanamido)ethyl)(methyl)carbamate] | 0% | 288245 | 0% |
